The values that follow come from patent US7955816B2, “Design and synthesis of biotinylated probes for N-acyl-ethanolamines” (Universita Degli Studi Di Roma “Tor Vergata”, priority 2006, dated 2011).

Test [1] has as its system HaCaT cells. Put plainly: Fluorescence microscopy of b-AEA transport in HaCaT cells. The class given is cell-based, human. The protocol: HaCaT cells were plated at a density of 6×10^4 cells/ml on collagen-coated (0.5 mg/ml; Sigma, St. Louis, Mo.) glass coverslips (12 mm). Twenty-four hours after plating, cultures were either left untreated (by adding […] biotin EZ-Link Biotin-PEO-Amine, as negative control) or incubated with […] b-AEA for 10 min at 37° C. in a 5% CO2 humidified atmosphere. […] All steps of the immunofluorescence procedure were performed at room temperature. Cells were washed, fixed with 3% paraformaldehyde (Sigma) for 20 min, and then permeabilized with 0.1% Triton X-100 in PBS for 15 min. After a blocking step in Image-iT™ FX signal enhancer (Molecular Probes, Eugene, Oreg.) for 30 min, cells were incubated for 1 h with anti-biotin primary antibody (Molecular Probes, Eugene, Oreg.), diluted 1:50 in Image-iT™ FX signal enhancer. […] N-Piperidino-5-(4-chlorophenyl)-1-(2,4-dichloro-phenyl)-4-methyl-3-pyrazole carboxamide (SR141716), and N-[1(S)-endo-1,3,3-trimethyl-bicyclo[2.2.1]heptan-2-yl]-5-(4-chloro-3-methylphenyl)-1-(4-methyl-benzyl)-pyrazole-3-carboxa-mide (SR144528) were kind gifts from Sanofi-Aventis Recherche (Montpellier, France). OMDM-1 was a kind gift from Dr. S. Marinelli (Experimental Neurology, IRCCS Fondazione Santa Lucia, Rome, Italy).

Test [2] relates to AEA membrane transporter (AMT). Put plainly: AMT assay in HaCaT cells: uptake of the radiolabelled compound as substrate. The class given is cell-based, human. Particulars: intact HaCaT cells. The protocol: (§1) HaCaT cells [Maccarrone et al., 2003], were cultured in Dulbecco's minimal essential supplemented with 10% fetal calf serum and 100 units/mL streptomycin/penicillin at 37° C. in a 5% CO2 humidified atmosphere. Cells were split twice a week at 1:5 ratio using 0.05% trypsin (w/v), 0.02% EDTA (w/v) in phosphate-buffered saline (PBS). These cells were grown in six-well plates (2×10^6 cells/well) and were incubated for 10 min at 37° C. with [^3H]AEA (Perkin-Elmer Life Sciences, Inc.; Boston, Mass.) or [^3H]b-AEA, and were washed three times with cold PBS containing 1% bovine serum albumin. To discriminate noncarrier-mediated from carrier-mediated transport of AEA, control experiments were carried out at 4° C. and the values subtracted from those at 37° C. Then, the cells were solubilized in 1 ml of 0.1 M NaOH and neutralized (50 μl of concentrated HCl), and radioactivity was determined by liquid scintillation counting. Incubations were also carried out with different concentrations of [^3H]AEA or [^3H]b-AEA, as indicated in the figures, to determine the apparent Michaelis-Menten constant (Km) and maximum velocity (Vmax). The effect of different compounds on AEA or b-AEA uptake was determined by adding each substance directly to the incubation medium, at different concentrations. The results are shown in FIG. 2A, Table 1 and Table 2.

Test [3] deals with T1, fatty acid amide hydrolase (FAAH) (Homo sapiens, UniProt O00519).
T1 construct: The reaction was initiated by the addition of HaCaT cell extracts; endogenous in cells; host or cells: HaCaT cell extracts
T1 sequence (O00519 1-579): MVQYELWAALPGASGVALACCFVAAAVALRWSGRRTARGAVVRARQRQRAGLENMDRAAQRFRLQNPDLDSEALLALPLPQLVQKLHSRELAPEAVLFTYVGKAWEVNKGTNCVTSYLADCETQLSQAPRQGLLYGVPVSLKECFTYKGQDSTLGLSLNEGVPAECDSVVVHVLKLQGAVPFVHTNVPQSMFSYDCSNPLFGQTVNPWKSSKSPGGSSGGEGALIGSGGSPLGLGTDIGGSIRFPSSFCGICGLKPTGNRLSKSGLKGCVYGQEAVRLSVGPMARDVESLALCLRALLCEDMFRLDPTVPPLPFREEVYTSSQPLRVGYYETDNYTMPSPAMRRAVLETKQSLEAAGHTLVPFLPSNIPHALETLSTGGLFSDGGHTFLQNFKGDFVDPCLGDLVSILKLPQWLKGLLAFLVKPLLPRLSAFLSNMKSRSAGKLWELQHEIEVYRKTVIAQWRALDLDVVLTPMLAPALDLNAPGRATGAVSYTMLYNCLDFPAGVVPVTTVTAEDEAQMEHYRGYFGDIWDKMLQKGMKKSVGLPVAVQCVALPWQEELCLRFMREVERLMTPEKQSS
Nature of the test: FAAH activity in HaCaT cell extracts, compound as substrate. The class given is biochemical. The settings on record: for hydrolysis by FAAH (substrate or not): FIG. 2B. The protocol:
(§2) The assay of fatty acid amide hydrolase (E.C. 3.5.1.4, arachidonoylethanolamide amidohydrolase; FAAH) was performed by measuring the release of [^3H]AA from [^3H]AEA (68 mCi/mmol) or [^3H]b-AEA (10 mCi/mmol) through reversed phase high performance liquid chromatography (RP-HPLC) and on-line scintillation counting. [^3H]AEA or [^3H]b-AEA was added to hydrolase assay buffer (50 mM Tris.HCl, pH 9.0) at the indicated concentrations. The reaction was initiated by the addition of HaCaT cell extracts, was continued at 37° C. for 15 min, and then was stopped by the addition of methanol/chloroform/water, with vortexing. This mixture was centrifuged at 3000×g for 5 min, the lower organic phase was dried and the pellet was resuspended in 20 μl of methanol and subjected to RP-HPLC analysis for AA quantitation. The separations of [^3H]AEA or [^3H]b-AEA from [^3H]AA were carried out on a C18 (5 μm, 3.0×150 mm) column, with a mobile phase of methanol-water-acetic acid (85:15:0.1, v/v/v), at a flow rate of 0.8 ml/min. The amount [^3H]AA formed were calculated from the corresponding peak areas. The effect of different concentrations of b-AEA on [^3H]AEA hydrolysis was ascertained by adding the “cold” compound directly to the assay buffer. FAAH activity was expressed as pmol [^3H]AA released from [^3H]AEA per min per mg protein. The results are shown in FIG. 2B, Table 1 and Table 2.

Test [4] deals with T2, CB1R (Homo sapiens, UniProt P21554).
T2 construct: endogenous in cells; host or cells: HaCaT cell membrane fractions
Type of test: binding. The settings on record: HaCaT membranes, FIG. 2C.

The test system of test [5] is AEA membrane transporter (AMT). Put plainly: Inhibition of [3H]AEA uptake by AMT in intact HaCaT cells. The class given is cell-based, human. Particulars: 0.5 μM [3H]AEA, read-out: IC50 for reduction of AEA uptake by AMT. The protocol:
as §1

Test [6] addresses T1, fatty acid amide hydrolase (FAAH). Nature of the test: Inhibition of [3H]AEA hydrolysis by FAAH in HaCaT cell extracts. The class given is biochemical. The settings on record: at concentrations up to 10 μM. The protocol: as §2
For the next test, the target named is T3, NAPE-PLD (Homo sapiens, UniProt Q6IQ20).
T3 construct: endogenous in cells; host or cells: HaCaT cell extracts
Put plainly: NAPE-PLD activity in HaCaT cell extracts. Particulars: at concentrations up to 10 μM. Type of test: biochemical. The protocol: HaCaT cell extracts (100 μg/test) were incubated at 37° C. for 30 min with a clear mixture of [^3H]NArPE (ARC; St. Louis, Mo.) and NArPE (“cold” NArPE was synthesized from AA and phosphatidylethanolamine) at a final specific activity of 6.8 nCi/nmol, in 200 μl of 50 mM Tris-HCl, pH 7.4, containing 0.1% Triton X-100. A mixture of chloroform/methanol (2:1, v/v; 600 μl) was added to stop the reaction. Then, the samples were vortexed and centrifuged at room temperature, and the lower organic phase was dried. The pellet was resuspended in 20 μl of methanol and subjected to RP-HPLC coupled to on-line scintillation counting. The separations were carried out on a C18 (5 μm, 3.0×150 mm) column with a mobile phase of methanol-water-acetic acid (85:15:0.1, v/v/v), at a flow rate of 0.8 ml/min. The amount of [^3H]AEA formed was calculated from the corresponding peak areas. The identity of the peaks was assessed also by UV detection of cold standard, recording absorbance at 204 nm. The effect of b-AEA on NAPE-PLD activity was ascertained by adding different concentrations of the biotin-derivative directly to the assay buffer. NAPE-PLD activity was expressed as pmol [^3H]AEA released from [^3H]NArPE per min per mg protein.

The target of test [7] is T4, CB1R (Mus musculus, UniProt P47746).
T4 construct: membrane preparations from mouse brain or mouse spleen were used; from tissue; host or cells: mouse brain membrane fractions
Put plainly: [3H]CP55.940 binding in mouse brain membrane fractions. The settings on record: mouse brain membranes, read-out: IC50 on CB1 receptors.

The next test deals with T5, CB2R (Mus musculus, UniProt P47936).
T5 construct: membrane preparations from mouse brain or mouse spleen were used; from tissue; host or cells: mouse spleen membrane fractions
Nature of the test: [3H]CP55.940 binding in mouse spleen membrane fractions. The settings on record: mouse spleen membranes, read-out: IC50 on CB2 receptors.

The target in another test is T6, TRPV1 (Rattus norvegicus, UniProt O35433).
T6 construct: membrane fractions isolated from rat neuroblastoma C6 cells were used; endogenous in cells; host or cells: rat C6 cells, membrane fractions
Put plainly: [3H]RTX binding in C6 cells membrane fractions. Particulars: competition with [3H]RTX; read-out: IC50 on TRPV1 receptors.

In test [8] the test system is HaCaT cells. Put plainly: HaCaT cell differentiation (cornified envelope formation). The class given is cell-based, human. The settings on record: 5 days, FIG. 4. Details: dose or concentration left out as unconfirmed. The protocol: Cell differentiation was induced by treating HaCaT cells with 12-O-tetradecanoylphorbol 13-acetate (TPA; 10 ng/ml) plus calcium chloride (CaCl2; 1.2 mM) for 5 days, as reported [Maccarrone et al., 2003]. AEA and b-AEA (or vehicle in the controls) were added directly to the culture medium at the same time as TPA plus calcium. Cornified envelope (CE), a hallmark of keratinocyte differentiation, was extracted from HaCaT cells (5×10^6/test) by exhaustive boiling and sonication in 2% SDS, 20 mM dithiothreitol, 0.1 M Tris-HCl pH 8.0, and 0.5 mM EDTA. CEs were then purified on Ficoll gradients and recovered as sonicated fragments, free of soluble keratin/filaggrin proteins, after pelleting through Ficoll as previously described [Maccarrone et al., 2003]. CE formation was quantified by spectrophotometry at 600 nm and was normalized to the protein content.

Test [9] deals with HaCaT cells. The settings on record: Maccarrone et al., 2003, cited from earlier work.

T2 sequence (P21554 whole entry): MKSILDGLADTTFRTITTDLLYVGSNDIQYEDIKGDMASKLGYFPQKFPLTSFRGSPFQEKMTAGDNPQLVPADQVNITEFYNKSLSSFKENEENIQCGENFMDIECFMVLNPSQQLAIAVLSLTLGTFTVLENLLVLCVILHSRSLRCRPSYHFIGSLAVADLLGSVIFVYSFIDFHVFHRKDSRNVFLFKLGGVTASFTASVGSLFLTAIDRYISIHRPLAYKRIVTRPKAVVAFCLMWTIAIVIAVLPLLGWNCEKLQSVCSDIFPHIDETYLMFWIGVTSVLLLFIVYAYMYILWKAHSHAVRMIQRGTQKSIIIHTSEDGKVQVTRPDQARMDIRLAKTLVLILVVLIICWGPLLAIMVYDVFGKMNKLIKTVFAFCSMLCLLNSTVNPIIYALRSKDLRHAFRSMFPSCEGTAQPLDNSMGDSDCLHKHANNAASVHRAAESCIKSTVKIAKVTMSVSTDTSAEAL
T4 sequence (P47746 whole entry): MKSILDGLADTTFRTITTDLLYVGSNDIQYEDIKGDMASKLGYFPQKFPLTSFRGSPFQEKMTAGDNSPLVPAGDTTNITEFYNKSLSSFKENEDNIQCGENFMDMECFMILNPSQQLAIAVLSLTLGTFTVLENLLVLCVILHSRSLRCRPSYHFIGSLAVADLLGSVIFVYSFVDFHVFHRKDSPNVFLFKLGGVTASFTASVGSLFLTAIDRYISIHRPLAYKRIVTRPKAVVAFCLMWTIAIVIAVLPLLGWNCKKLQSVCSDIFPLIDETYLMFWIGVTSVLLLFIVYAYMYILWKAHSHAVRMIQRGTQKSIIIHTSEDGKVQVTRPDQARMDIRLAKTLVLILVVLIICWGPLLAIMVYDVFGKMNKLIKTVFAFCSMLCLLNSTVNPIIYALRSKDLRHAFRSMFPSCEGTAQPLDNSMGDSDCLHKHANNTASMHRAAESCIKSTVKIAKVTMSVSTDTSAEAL
T6 sequence (O35433 whole entry): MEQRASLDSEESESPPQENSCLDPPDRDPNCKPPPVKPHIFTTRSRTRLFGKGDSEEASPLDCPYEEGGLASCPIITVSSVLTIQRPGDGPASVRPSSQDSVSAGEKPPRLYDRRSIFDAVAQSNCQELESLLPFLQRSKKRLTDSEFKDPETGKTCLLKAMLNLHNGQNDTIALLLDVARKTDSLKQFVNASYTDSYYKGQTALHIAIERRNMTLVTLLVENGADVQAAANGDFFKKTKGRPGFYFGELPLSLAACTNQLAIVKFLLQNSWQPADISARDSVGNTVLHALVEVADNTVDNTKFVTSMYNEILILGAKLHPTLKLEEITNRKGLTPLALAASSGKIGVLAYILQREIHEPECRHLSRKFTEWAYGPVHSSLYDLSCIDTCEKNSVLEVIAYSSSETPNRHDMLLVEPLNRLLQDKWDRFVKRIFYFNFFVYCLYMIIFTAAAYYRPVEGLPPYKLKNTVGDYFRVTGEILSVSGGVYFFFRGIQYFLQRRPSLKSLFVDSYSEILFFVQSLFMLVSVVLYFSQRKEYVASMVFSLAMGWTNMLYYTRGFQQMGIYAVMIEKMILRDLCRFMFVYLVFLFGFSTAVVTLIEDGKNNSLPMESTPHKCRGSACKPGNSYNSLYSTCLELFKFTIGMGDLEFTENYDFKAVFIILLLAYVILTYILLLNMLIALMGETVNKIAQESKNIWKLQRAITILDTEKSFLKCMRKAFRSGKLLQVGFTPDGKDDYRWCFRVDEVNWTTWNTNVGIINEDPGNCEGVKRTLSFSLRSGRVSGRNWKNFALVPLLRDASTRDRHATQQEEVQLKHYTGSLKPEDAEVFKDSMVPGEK
T3 sequence (Q6IQ20 whole entry): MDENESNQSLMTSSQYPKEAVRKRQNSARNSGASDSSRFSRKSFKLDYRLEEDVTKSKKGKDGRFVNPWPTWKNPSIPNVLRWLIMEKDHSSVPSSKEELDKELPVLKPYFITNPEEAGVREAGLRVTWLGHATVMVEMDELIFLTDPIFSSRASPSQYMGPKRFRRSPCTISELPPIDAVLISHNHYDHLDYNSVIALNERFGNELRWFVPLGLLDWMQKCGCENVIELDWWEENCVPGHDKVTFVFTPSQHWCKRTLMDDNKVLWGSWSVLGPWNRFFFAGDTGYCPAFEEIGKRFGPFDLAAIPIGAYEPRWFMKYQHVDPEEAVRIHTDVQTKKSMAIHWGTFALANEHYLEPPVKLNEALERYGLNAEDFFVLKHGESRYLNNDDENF
T5 sequence (P47936 whole entry): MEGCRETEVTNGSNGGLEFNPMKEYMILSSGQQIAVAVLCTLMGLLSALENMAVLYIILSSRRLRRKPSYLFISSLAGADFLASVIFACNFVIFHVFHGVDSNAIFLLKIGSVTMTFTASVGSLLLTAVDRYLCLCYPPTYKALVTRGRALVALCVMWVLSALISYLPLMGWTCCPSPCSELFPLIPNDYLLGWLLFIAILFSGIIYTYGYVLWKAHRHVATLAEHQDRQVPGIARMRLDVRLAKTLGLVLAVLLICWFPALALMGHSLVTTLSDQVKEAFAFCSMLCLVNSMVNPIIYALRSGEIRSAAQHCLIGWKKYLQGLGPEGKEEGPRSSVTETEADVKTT

For `CCCCCCCC/C=C\CCCCCCCC(=O)N[C@H](CO)Cc1ccc(O)cc1` [OMDM-1], in the test with HaCaT cells [1] (5 μM, added 5 min before probe), the “effect on b-AEA immunostaining (uptake) of HaCaT cells” value is listed as “remarkable decrease of immunostaining”.
On to `NC(=O)c1cccc(-c2cccc(OC(=O)NC3CCCCC3)c2)c1` [URB597], for which the “effect on uptake and intracellular trafficking of b-AEA in HaCaT cells” value in the test on HaCaT cells [1] (1 μM, added 5 min before probe) is on record as “did not affect”.
A word on the Km: it is the substrate concentration at which the rate is half of its maximum. By IC50 is commonly meant the point on the concentration scale where inhibition reaches its midpoint. As for `CCCCC/C=C\C/C=C\C/C=C\C/C=C\CCCC(=O)NCCOCCOCCNC(=O)CCCC[C@@H]1SC[C@@H]2NC(=O)N[C@@H]21` [b-AEA, (+)-N-arachidonoyl-biotinyl-3,6-dioxaoctanediamine], the “AMT Vmax” value came out at 116 ± 10 pmol/min per mg protein in test [2] and 116 ±10 pmol/min per mg protein in test [2] (listed as [^3H]b-AEA). Moreover, in [2], the Km was 0.421 ± 0.088 µM. Besides, the “hydrolysis by FAAH (substrate or not)” value in test [3] is listed as “not a substrate for FAAH”. Also, the “binding to CB1 receptors of HaCaT cells” value on CB1R [4] is “did not bind”. For the same molecule, the IC50 was 0.5 ± 0.1 µM in [5], > 10 µM at CB1R [7], > 10 µM on CB2R and > 10 µM at TRPV1. Also, the “effect on FAAH activity of HaCaT cells” value in [6] was “does not affect”. The “effect on NAPE-PLD activity of HaCaT cells” value at NAPE-PLD is “does not affect”. In addition, the “uptake by HaCaT cells seen by immunofluorescence” value with HaCaT cells [1] (5 M per test, FIG. 3) is on record as “cells quickly take up b-AEA”. Besides, in the test with HaCaT cells [8], the “effect on HaCaT cell differentiation (CE formation induced by TPA+calcium)” value is “ineffective”.
As to `Cc1c(C(=O)NN2CCCCC2)nn(-c2ccc(Cl)cc2Cl)c1-c1ccc(Cl)cc1` [SR141716, N-Piperidino-5-(4-chlorophenyl)-1-(2,4-dichloro-phenyl)-4-methyl-3-pyrazole carboxamide], the “reversal of the AEA effect on CE formation” value in the test on HaCaT cells [9] (0.1 μM) is listed as “fully reversed”.
On to `CCCCC/C=C\C/C=C\C/C=C\C/C=C\CCCC(=O)NCCO` [AEA, N-arachidonoylethanolamine], for which, in [2], the “AMT Vmax” value came to 124 ± 8 pmol/min per mg protein and the Km was 0.353 ± 0.06 µM. Moreover, the “hydrolysis by FAAH (substrate or not)” value in test [3] is “hydrolyzed in a concentration-dependent manner”. The “FAAH Vmax” value in [3] (compound as substrate) is 385 ± 25 pmol/min per mg protein. Further, in the test with HaCaT cells [8], the “effect on HaCaT cell differentiation (CE formation induced by TPA+calcium)” value is reported as “blocked”. The “effect on CE formation in HaCaT cells” value in the test with HaCaT cells [9] (maximum effect at 1 μM) is on record as “dose-dependently reduces CE formation”.
